The values below come from US12653914B2, “Compounds for fast and efficient click release” (priority 2019, dated 2026).

Like-named read-outs stand apart in the source and are kept apart here.

A short description of test [1]: Second order rate constant, TCO derivatives with tetrazine 2.18, pseudo-first order, UV spectroscopy in MeCN. Conditions: reaction with 2.18 in MeCN at 20° C.; estimated from k1′. Here is the method: Second order rate constant for the reaction between TCO derivatives and tetrazine 2.18 was determined under pseudo-first order conditions in MeCN at 20° C. by UV spectroscopy. A cuvette was filled with MeCN (3 mL) and equilibrated at 20° C. A solution of 2.18 (20 μL, 25 mM in DMSO) was added, followed by a solution of the TCO (5 μL 25 mM in DMSO). The absorption at 540 nm was monitored. The pseudo-first order reaction constant k1′ was calculated from the half-life of the decrease of this absorption, and the second order rate constant k2 was estimated from k1′ and the initial concentration of tetrazine: k2=k1′/c.

Test [2] in a line: Release of constructs (C^A) from TCO triggers with tetrazines, HPLC-MS/PDA. As to conditions: for Time point and release %: MeCN/PBS. On the procedure: In another experiment, the release of TCO triggers was evaluated with a range of tetrazines. The constructs to be released included the drug doxorubicin, and methylamine as a model C^A. TCO-C^A conjugates (10 μL, 25 mM in DMSO) were diluted with MeCN ([…]) and PBS ([…]). Next, a solution of the tetrazine activator (20 μL 25 mM in DMSO) was added, and the release was evaluated by HPLC-MS/PDA. The results in Table 6 show complete C^A release in 5 min from all TCO triggers with all tested activators. Importantly, no release was observed from 1.42 and 1.62 upon reaction with 2.18, which supports Formula (19), wherein an amine being Y^T1, Y^T2 or Y^T3 cannot be bound to a carbonyl.

The conditions of test [3]: cited from earlier work.
The nature of test [4]: Release kinetics of 7-amino-4-methylcoumarin (AMC) in various media, fluorescence. Conditions: 5 μM 1.14, 7 μM activator 2.18. On the procedure: 1.14 was reacted in PBS, DMEM buffer, full cell growth medium (DMEM+10% FBS) or human plasma at a concentration of 5 μM with activator 2.18 (7 μM) in a quartz cuvette while magnetic stirring. The increase of fluorescence due to the release of 7-amino-4-methylcoumarin (AMC) was monitored using a Perkin Elmer LS55 fluorescence spectrometer. […] In contrast, with TCO triggers not of this invention, 2.18 gives low and slow release [Versteegen et al., Angew. Chem. Int. Ed. 2013, 52, 14112-14116, Sarris et al., Chem Eur J 2018, 24, 18075-18081].

Test [5] is described as follows: Second order rate constants, TCO with tetrazine activators, stopped-flow spectrophotometry in PBS. As to conditions: PBS at 37° C., 25 μM tetrazine, 50 μM TCO. On the procedure: Second order rate constants for the reaction of tetrazines activators with 1.13 and 1.71 were determined using a SX20 stopped-flow spectrophotometer from Applied Photophysics. Measurements were performed at 37° C. with 25 μM tetrazine and 50 μM TCO in PBS, in triplicates, monitored at 535 nm. Data was analyzed using GraphPad Prism. Second order rate constants were determined from nonlinear fitting of the absorbance vs. time curves to the second order rate equation. […] Importantly, 2.17 and 2.18 are very reactive, but afford low release yields with TCO triggers that are not part of this invention (i.e. 1.71) [Versteegen et al., Angew. Chem. Int. Ed. 2013, 52, 14112-14116].

Test [6] can be described thus: Dye (AF594) release efficiency from TCO-C^A conjugates with tetrazine activators, HPLC endpoint. Conditions: 25 μM TCO, 50 μM tetrazine, PBS 37° C., 48 h, n = 2, ±1%. Here is the method:
1.15 and 1.72 (as control without an Y^T1 group) were reacted at a concentration of 25 μM with various tetrazine activators (50 μM) in PBS (DMSO content <1%) at 37° C. Samples were analyzed by HPLC (UV and fluorescence detection; 10-100% MeCN in water with 2.5 mM NH4OAc, pH 8.4) after 48 h to obtain endpoint data for the overall dye release efficiency (Table 5). […] Importantly, highly reactive tetrazines that normally give low release yields, now give quantitative release. Compare with [Versteegen et al., Angew. Chem. Int. Ed. 2013, 52, 14112-14116, Sarris et al., Chem Eur J 2018, 24, 18075-18081].

Setting [7] is: 5 min, tetrazine 2.18, released payload dimethylamine.
The mark [8] stands for this setting: 10 min, tetrazine 2.20, released payload doxorubicin.

On to `CN(C)C(=O)O[C@@H]1/C=C/CCN(C(=O)OCC[Si](C)(C)C)CC1` (racemic) [Compound 1.62, 2-(Trimethylsilyl)ethyl (S,E)-4-((dimethylcarbamoyl)oxy)-3,4,7,8-tetrahydroazocine-1(2H)-carboxylate], for which, in test [1], the k2 was 80 M⁻¹ s⁻¹. Besides, the “release upon reaction with 2.18” value in test [2] is given as “no release”.
Consider `CN(C)C(=O)O[C@@H]1/C=C/CCNCC1` (racemic) [Compound 1.63, (S,E)-1,2,3,4,7,8-Hexahydroazocin-4-yl dimethylcarbamate], for which, in test [2] (setting [7]), the “Time point and release %” value is reported as 5 min: 100%.
The same measure, in the same setting: the result for `CNC(=O)C[C@@H]1CC[C@H](OC(=O)N(C)C)/C=C/C[C@H]1O` (relative stereo) [Compound 1.70, (rel-1S,5R,6S,E)-5-Hydroxy-6-(2-(methylamino)-2-oxoethyl)cyclooct-2-en-1-yl dimethylcarbamate] reads 5 min: 100%.
For `CN(C)C(=O)OC[C@H]1CC[C@H](OC(=O)N(C)C)/C=C/C[C@H]1N` (stereo in doubt) [Compound 1.54, (1S,5R,6S,E)-5-Amino-6-(((dimethylcarbamoyl)oxy)methyl)cyclooct-2-en-1-yl dimethylcarbamate], the k2 in test [1] was 38 M⁻¹ s⁻¹. In addition, in test [2] (setting [7]), the “Time point and release %” value is reported as 5 min: 50%.
Regarding `c1ccc(-c2nnc(-c3ccccn3)nn2)nc1` [3,6-bis-(2-pyridyl)-1,2,4,5-tetrazine], the click release yield in test [3] (PBS/MeCN (3:1)) was 7%; in test [3] (serum), 12%.
Regarding `Cc1nnc(C)nn1` [3,6-bis-methyl-1,2,4,5-tetrazine], in test [3] (release typically takes several hours), the maximum release yield is reported as 80-90%.
In the case of `COC(=O)[C@]1(O)CC/C=C/[C@H](OC(=O)Nc2ccc3c(C)cc(=O)oc3c2)CC1` [Compound 1.14, Methyl(1S,4E,6R)-1-hydroxy-6-{[(4-methyl-2-oxo-2H-chromen-7-yl)carbamoyl]oxy}cyclooct-4-ene-1-carboxylate], the “time to reach 100% AMC release” value in test [4] (PBS and medium (neat or containing FBS)) lay in the range of 1 to 3 min. In addition, in test [4] (human plasma), the “time to complete AMC release” value is given as “approximately 20 min”.
Consider `COC(=O)[C@]1(O)CC/C=C/[C@H](OC(=O)N(C)c2ccc([C@@H](O)C(=O)O)cc2)CC1` [Compound 1.19, 2-Hydroxy-2-{4-[({[(1R,2E,6S)-6-hydroxy-6-(methoxycarbonyl)cyclooct-2-en-1-yl]oxy}carbonyl)(methyl)amino]phenyl}acetic acid], for which the k2 in test [1] was 134 M⁻¹ s⁻¹. For the same compound, in test [2] (5 min, tetrazines 2.1, 2.3, 2.18 (for all tested activators), released payload 2-hydroxy-2-[4-(methylamino)phenyl]acetic acid), the “Time point and release %” value is 5 min: 100%.
For `COC(=O)[C@H]1CC[C@@H](O)/C=C/C[C@@H]1NC(=O)OCC[Si](C)(C)C` [Compound 1.40, Methyl (1S,2S,4E,6R)-6-hydroxy-2-({[2-(trimethylsilyl)ethoxy]carbonyl}amino)cyclooct-4-ene-1-carboxylate], the k2 in test [1] was 39 M⁻¹ s⁻¹.
Consider `COC(=O)[C@H]1CC[C@@H](OC(=O)N(C)C)/C=C/C[C@@H]1NC(=O)OCC[Si](C)(C)C` [Compound 1.42, Methyl (1S,2S,4E,6R)-6-((dimethylcarbamoyl)oxy)-2-(((2-(trimethylsilyl)ethoxy)carbonyl)amino)cyclooct-4-ene-1-carboxylate], for which the “release upon reaction with 2.18” value in test [2] (tetrazine 2.18, amine bound to a carbonyl (protected)) is given as “no release”.
`COC(=O)[C@H]1CC[C@@H](OC(=O)N(C)C)/C=C/C[C@@H]1N` [Compound 1.43, Methyl (1S,2S,4E,6R)-2-amino-6-((dimethylcarbamoyl)oxy)cyclooct-4-ene-1-carboxylate]: in test [1], the k2 is 27 M⁻¹ s⁻¹. The “Time point and release %” value in test [2] (5 min, tetrazines 2.1, 2.3, 2.15, 2.17, 2.18 (for all tested activators), released payload dimethylamine) is 5 min: 100%.
As for `COC(=O)[C@H]1CC[C@@H](OC(=O)N[C@H]2C[C@@H](OC3C[C@](O)(C(=O)CO)Cc4c(O)c5c(c(O)c43)C(=O)c3c(OC)cccc3C5=O)O[C@@H](C)[C@H]2O)/C=C/C[C@@H]1N` (stereo partly drawn) [Compound 1.45, TCO-doxorubicin], in test [2] (setting [8]), the “Time point and release %” value is given as 10 min: 100%.
`C[Si](C)(C)CCOC(=O)N[C@H]1C/C=C/[C@H](O)CC[C@H]1CO` [Compound 1.51, 2-(trimethylsilyl)ethyl N-[(1S,3E,5R,8R)-5-hydroxy-8-(hydroxymethyl)cyclooct-3-en-1-yl]carbamate]: the k2 in test [1] was 104 M⁻¹ s⁻¹.
Same read-out and setting: in the case of `C[Si](C)(C)CCOC(=O)N1CC/C=C/C(O)CC1` (stereo not drawn) [Compound 1.60, 2-(Trimethylsilyl)ethyl (E)-4-hydroxy-3,4,7,8-tetrahydroazocine-1(2H)-carboxylate] it was 277 M⁻¹ s⁻¹.
For `COc1cccc2c1C(=O)c1c(O)c3c(c(O)c1C2=O)C[C@@](O)(C(=O)CO)C[C@@H]3O[C@@H]1C[C@H](NC(=O)O[C@@H]2/C=C/CCNCC2)[C@H](O)[C@H](C)O1` [Compound 1.65, TCO-doxorubicin], the “Time point and release %” value in test [2] (setting [8]) is reported as 10 min: 100%.
`O=C(NCCOCCOCCOCCO)O[C@H]1/C=C/CCCCC1` [Compound 1.71, reference compound]: the k2 amounted to 280 ± 30 M⁻¹ s⁻¹ in test [5] (activator 2.12), 10300 ± 1200 M⁻¹ s⁻¹ in test [5] (activator 2.17), 9300 ± 500 M⁻¹ s⁻¹ in test [5] (activator 2.18) and 80 ± 10 M⁻¹ s⁻¹ in test [5] (activator 2.9).
For TCO-PEG2-AF594 [Compound 1.15], the “Release (%) of fluorescent dye (AF594)” value in test [6] (activator 2.10) was 99%; in test [6] (activator 2.11), 99%; in test [6] (activator 2.12), 92%; in test [6] (activator 2.13), 99%; in test [6] (activator 2.14) it was 99%; in test [6] (activator 2.16) it was 92%. In addition, the “Release (%) of fluorescent dye (AF594)” value in test [6] (activator 2.17) is given as 96%; in test [6] (activator 2.18), 99%; in test [6] (activator 2.19), 99%; in test [6] (activator 2.6) it was 93%; in test [6] (activator 2.9), 98%.
